Source: paper PMC6274554, “Synthetic Strategy and Anti-Tumor Activities of Macrocyclic Scaffolds Based on 4-Hydroxyproline” (Molecules, 2016)

Legend:
Assay type in all cases: cell-based, human
[1] = tested on: lung cancer cell line A549; assay: MTT cytotoxicity assay, A549; details: A549 cells, 8000 cells/well, 24 h incubation with compound, absorbance 490 nm, read-out: IC50 (μmol/L) A549
From the text: (§1) A small library derived from 6a–b, 9 and 10a–c was obtained by hydrolysis of the macrocycles and condensation with amines. The anti-tumor activities for lung cancer cell line A549, breast cancer cell line MDA-MB-231 and hepatocarcinoma cell line Hep G2 of all these new compounds were screened in vitro by an MTT assay. Most of the compounds show some inhibitory activities against A549, MDA-MB-231 and Hep G2. […] In the future, further structure–activity relationship studies will be performed to determine how the substituents affected the anti-tumor activity and to design the best chemical structure in the future.
(§2) The human lung cancer cell line A549, breast cancer cell line MDA-MB-231 and hepatocarcinoma cell line Hep G2 were cultured in Dulbecco’s modified Eagle’s medium (DMEM) supplemented with antibiotics (penicillin 50 U/mL; streptomycin 50 µg/mL) and 10% FCS. The incubation was at 37 °C in a humidified atmosphere of 5% CO2 in air before experiments. Cells were first seeded at a density of 8000 cells/well in a 96-well plate for 48 hours. Solutions containing respective concentrations of compounds were added into wells and incubation continued for another 24 hours. After that, the MTT (3-(4,5-dimethylthiazol-2-yl)-2,5-diphenyltetrazolium bromide) dye stock solution (10 μL, 5 mg/mL) was added to each well. After 4 h, the supernatant was removed and DMSO (100 μL) was added to solubilize the MTT. The absorbance was measured at a wave length of 490 nm (A490nm) on an ELISA microplate reader. Results were expressed as IC50 values.

[2] = tested on: breast cancer cell line MDA-MB-231; assay: MTT cytotoxicity assay, MDA-MB-231; details: MDA-MB-231 cells, 8000 cells/well, 24 h incubation with compound, absorbance 490 nm, read-out: IC50 (μmol/L) MDA-MB-231
From the text: as §1, §2

[3] = tested on: hepatocarcinoma cell line Hep G2; assay: MTT cytotoxicity assay, Hep G2; details: Hep G2 cells, 8000 cells/well, 24 h incubation with compound, absorbance 490 nm, read-out: IC50 (μmol/L) Hep G2
From the text: as §1, §2

Work on `NC(=O)[C@@H]1C[C@@H]2CN1C(=O)c1cccc(c1)OCCn1cc(nn1)CO2` [Compound 23, (11R,13S)-15-Oxo-2,10-dioxa-5,6,7,14-tetraaza-tetracyclo[14.3.1.1^5,8.1^11,14]docosane-6,8(21),1(20),16,18-pentaene-13-carboxamide] yielded an IC50 [1] of 26.8 µmol/L, an IC50 [2] of 29.9 µmol/L and an IC50 [3] of 37.3 µmol/L.
